Laboratory results: patent US8192962B2, “Processes for detecting toxic substances” (Daikin Industries, Ltd., priority 2001, dated 2012)

Tested on: Unknown protein yeast genes
Test: DNA chip mRNA expression in yeast, unknown protein yeast genes (Table 1)
Assay type: cell-based, Saccharomyces cerevisiae S288C
Method: Yeast (Saccharomyces cerevisiae S288C (α SUC2mal mel gap2 CUP1)) were incubated at 25° C. on YPD medium (yeast extract 1%, polypepton 2%, glucose 2%). One of toxic chemical substances was added to the cells at logarithmic growth phase, and the cells were further incubated for two hours. Cells were cultured without any chemical substance in the same condition, and were used as control. Concentrations of the chemical substances were defined to inhibit the growth of the yeast but not lead to death.
After completion of the incubation, the culture was centrifuged to collect the cells. To the cells, sodium acetate buffer (50 mM sodium acetate, 10 mM EDTA, 1% SDS) was added, and the mixture was shaken at 65° C. for five minutes, followed by returning to room temperature, and obtaining the supernatant, of which the procedures were repeated two times. To the supernatant, ½ amount of a solution of phenol/chloroform was added, and the mixture was centrifuged to give a supernatant, which was added with an equal amount of chloroform, and the mixture was centrifuged to give a supernatant. To the supernatant, an equal amount of isopropanol containing 0.3 M sodium acetate was added, and the mixture was allowed to stand at room temperature for 30 minutes, after which the mixture was centrifuged to give a sediment of the whole RNAs. Seventy % ethanol was added to the sediment, and the mixture was again centrifuged to give a sediment, which was then dried and dissolved in water. mRNA was isolated from the whole RNAs as followings. In view of the fact that a poly A chain is attached to the 3′ terminus of mRNA, a polynucleotide having a poly T structure which was immobilized on the surface of latex beads was used to trap the mRNA, and then the mRNA was washed and eluted with spine column (Oligotex-dT30<Super>mRNA Purification Kit, Takara). Reverse transcription of the mRNA was conducted with a reverse transcriptase (Super Script II Reverse Transcriptase; catalogue No. 18064-014, GibcoBRL) using fluorescence-labeled nucleotides to give cDNAs that were introduced with Cy3-dUTP or Cy5-dUTP during the reverse transcription.
The labeled cDNAs were dissolved in TE buffer (10mM Tris-HCl/1 mM EDTA, pH8.0), and the solution was dropped on the DNA chip containing the whole genes of yeast (DNA Chip Research Inc. Japan) so that the cDNAs were hybridized on the DNA chip at 65° C. for over 12 hours. The fluoresces intensity of the DNA chip was read with a scanner, and the ratio relative to the fluorescence intensity resulting from the absence of chemical substance was estimated as the following, which is shown in Tables 1 to 9: […]

Substance: Na2As [(1)]
- The level of expressed mRNA in the presence of chemical substance/The level of expressed mRNA in the absence of chemical substance (yeast gene YKL195W, incubated two hours with chemical substance): 0.8
- The level of expressed mRNA in the presence of chemical substance/The level of expressed mRNA in the absence of chemical substance (yeast gene YKR091W, incubated two hours with chemical substance): 1.5
- The level of expressed mRNA in the presence of chemical substance/The level of expressed mRNA in the absence of chemical substance (yeast gene YLR054C, incubated two hours with chemical substance): 2.0
- The level of expressed mRNA in the presence of chemical substance/The level of expressed mRNA in the absence of chemical substance (yeast gene YLR149C, incubated two hours with chemical substance): 1.4
- The level of expressed mRNA in the presence of chemical substance/The level of expressed mRNA in the absence of chemical substance (yeast gene YLR152C, incubated two hours with chemical substance): 0.7
- The level of expressed mRNA in the presence of chemical substance/The level of expressed mRNA in the absence of chemical substance (yeast gene YLR194C, incubated two hours with chemical substance): 2.1
- The level of expressed mRNA in the presence of chemical substance/The level of expressed mRNA in the absence of chemical substance (yeast gene YLR324W, incubated two hours with chemical substance): 0.7
- The level of expressed mRNA in the presence of chemical substance/The level of expressed mRNA in the absence of chemical substance (yeast gene YLR350W, incubated two hours with chemical substance): 1.2
- The level of expressed mRNA in the presence of chemical substance/The level of expressed mRNA in the absence of chemical substance (yeast gene YLR387C, incubated two hours with chemical substance): 0.9
- The level of expressed mRNA in the presence of chemical substance/The level of expressed mRNA in the absence of chemical substance (yeast gene YLR460C): 2.1
- The level of expressed mRNA in the presence of chemical substance/The level of expressed mRNA in the absence of chemical substance (yeast gene YML117W, incubated two hours with chemical substance): 0.9
- The level of expressed mRNA in the presence of chemical substance/The level of expressed mRNA in the absence of chemical substance (yeast gene YMR009W, incubated two hours with chemical substance): 2.3
- The level of expressed mRNA in the presence of chemical substance/The level of expressed mRNA in the absence of chemical substance (yeast gene YMR067C, incubated two hours with chemical substance): 0.9
- The level of expressed mRNA in the presence of chemical substance/The level of expressed mRNA in the absence of chemical substance (yeast gene YMR090W): 6.9
- The level of expressed mRNA in the presence of chemical substance/The level of expressed mRNA in the absence of chemical substance (yeast gene YMR095C, incubated two hours with chemical substance): 1.1
- The level of expressed mRNA in the presence of chemical substance/The level of expressed mRNA in the absence of chemical substance (yeast gene YMR097C, incubated two hours with chemical substance): 1.5
- The level of expressed mRNA in the presence of chemical substance/The level of expressed mRNA in the absence of chemical substance (yeast gene YMR102C, incubated two hours with chemical substance): 1.0
- The level of expressed mRNA in the presence of chemical substance/The level of expressed mRNA in the absence of chemical substance (yeast gene YMR107W, incubated two hours with chemical substance): 5.0
- The level of expressed mRNA in the presence of chemical substance/The level of expressed mRNA in the absence of chemical substance (yeast gene YMR180C, incubated two hours with chemical substance): 1.2
- The level of expressed mRNA in the presence of chemical substance/The level of expressed mRNA in the absence of chemical substance (yeast gene YMR184W, incubated two hours with chemical substance): 1.3
- The level of expressed mRNA in the presence of chemical substance/The level of expressed mRNA in the absence of chemical substance (yeast gene YMR191W, incubated two hours with chemical substance): 1.3
- The level of expressed mRNA in the presence of chemical substance/The level of expressed mRNA in the absence of chemical substance (yeast gene YMR295C, incubated two hours with chemical substance): 1.7
- The level of expressed mRNA in the presence of chemical substance/The level of expressed mRNA in the absence of chemical substance (yeast gene YMR316W, incubated two hours with chemical substance): 3.2
- The level of expressed mRNA in the presence of chemical substance/The level of expressed mRNA in the absence of chemical substance (yeast gene YNL044W, incubated two hours with chemical substance): 1.3
- The level of expressed mRNA in the presence of chemical substance/The level of expressed mRNA in the absence of chemical substance (yeast gene YNL074C, incubated two hours with chemical substance): 0.9
- The level of expressed mRNA in the presence of chemical substance/The level of expressed mRNA in the absence of chemical substance (yeast gene YNL092W, incubated two hours with chemical substance): 1.3
- The level of expressed mRNA in the presence of chemical substance/The level of expressed mRNA in the absence of chemical substance (yeast gene YNL115C, incubated two hours with chemical substance): 0.7
- The level of expressed mRNA in the presence of chemical substance/The level of expressed mRNA in the absence of chemical substance (yeast gene YNL156C, incubated two hours with chemical substance): 1.1
- The level of expressed mRNA in the presence of chemical substance/The level of expressed mRNA in the absence of chemical substance (yeast gene YNL234W, incubated two hours with chemical substance): 1.1
- The level of expressed mRNA in the presence of chemical substance/The level of expressed mRNA in the absence of chemical substance (yeast gene YNL281W, incubated two hours with chemical substance): 1.0
- The level of expressed mRNA in the presence of chemical substance/The level of expressed mRNA in the absence of chemical substance (yeast gene YNL305C, incubated two hours with chemical substance): 0.9
- The level of expressed mRNA in the presence of chemical substance/The level of expressed mRNA in the absence of chemical substance (yeast gene YNR068C, incubated two hours with chemical substance): 1.2
- The level of expressed mRNA in the presence of chemical substance/The level of expressed mRNA in the absence of chemical substance (yeast gene YOL032W, incubated two hours with chemical substance): 1.3
- The level of expressed mRNA in the presence of chemical substance/The level of expressed mRNA in the absence of chemical substance (yeast gene YOL036W, incubated two hours with chemical substance): 0.8
- The level of expressed mRNA in the presence of chemical substance/The level of expressed mRNA in the absence of chemical substance (yeast gene YOL047C, incubated two hours with chemical substance): 1.4
- The level of expressed mRNA in the presence of chemical substance/The level of expressed mRNA in the absence of chemical substance (yeast gene YOL071W, incubated two hours with chemical substance): 1.3
- The level of expressed mRNA in the presence of chemical substance/The level of expressed mRNA in the absence of chemical substance (yeast gene YOL082W, incubated two hours with chemical substance): 1.0
- The level of expressed mRNA in the presence of chemical substance/The level of expressed mRNA in the absence of chemical substance (yeast gene YOL083W, incubated two hours with chemical substance): 1.1
- The level of expressed mRNA in the presence of chemical substance/The level of expressed mRNA in the absence of chemical substance (yeast gene YOL117W, incubated two hours with chemical substance): 1.0
- The level of expressed mRNA in the presence of chemical substance/The level of expressed mRNA in the absence of chemical substance (yeast gene YOL131W, incubated two hours with chemical substance): 1.0
- The level of expressed mRNA in the presence of chemical substance/The level of expressed mRNA in the absence of chemical substance (yeast gene YOL150C): 4.1
- The level of expressed mRNA in the presence of chemical substance/The level of expressed mRNA in the absence of chemical substance (yeast gene YOL162W, incubated two hours with chemical substance): 2.0
- The level of expressed mRNA in the presence of chemical substance/The level of expressed mRNA in the absence of chemical substance (yeast gene YOR019W, incubated two hours with chemical substance): 2.9
- The level of expressed mRNA in the presence of chemical substance/The level of expressed mRNA in the absence of chemical substance (yeast gene YOR197W, incubated two hours with chemical substance): 0.8
- The level of expressed mRNA in the presence of chemical substance/The level of expressed mRNA in the absence of chemical substance (yeast gene YPL087W, incubated two hours with chemical substance): 1.0
- The level of expressed mRNA in the presence of chemical substance/The level of expressed mRNA in the absence of chemical substance (yeast gene YPL196W, incubated two hours with chemical substance): 1.3
- The level of expressed mRNA in the presence of chemical substance/The level of expressed mRNA in the absence of chemical substance (yeast gene YPL206C, incubated two hours with chemical substance): 1.0
- The level of expressed mRNA in the presence of chemical substance/The level of expressed mRNA in the absence of chemical substance (yeast gene YPL222W, incubated two hours with chemical substance): 0.9
- The level of expressed mRNA in the presence of chemical substance/The level of expressed mRNA in the absence of chemical substance (yeast gene YPR023C, incubated two hours with chemical substance): 1.2
- The level of expressed mRNA in the presence of chemical substance/The level of expressed mRNA in the absence of chemical substance (yeast gene YPR151C, incubated two hours with chemical substance): 2.3
